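Five compound concentrations were applied to cells in 96-well plates for 48 hours; endpoints were derived by simple linear interpolation of the resulting dose-response curve. TGI marks complete inhibition of growth.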
What was measured:
Assay in all cases: DTP human tumour cell line panel, 48 h
EKVX NSCLC = system: EKVX NSCLC
PC-3 prostate = system: PC-3 prostate
MDA-N = system: MDA-N
M14 melanoma = system: M14 melanoma
NCI-H226 lung = system: NCI-H226 lung
RXF 393 renal = system: RXF 393 renal

SMILES	TGI (EKVX NSCLC) [µM]	TGI (PC-3 prostate) [µM]	TGI (MDA-N) [µM]	TGI (M14 melanoma) [µM]	TGI (NCI-H226 lung) [µM]	TGI (RXF 393 renal) [µM]
O=C(CCCN1CCC2(CC1)C(=O)NC(=O)N2c1ccccc1)c1ccc(F)cc1	> 100	> 100	> 100	> 100	> 100	> 100
COC(=O)c1ccc2c(c1)CC1(C2)Cc2cc3c(c(C(=O)OC)c2C1)CCCC3 (stereo unspecified)	> 100	> 100	> 100	–	> 100	> 100
COc1ccc(NC(=O)CC(=O)n2nc(C)c(N=Nc3ccc(C)c(C)c3)c2C)cc1	52	> 100	> 100	> 100	> 100	> 100
Cn1c(=O)n2n(c1=O)Cc1cccc3cccc(c13)C2	> 100	> 100	> 100	> 100	> 100	> 100
N=C(/C=C/c1ccc(-c2cn3cc(/C=C/C(=N)N4CCCC4)ccc3n2)cc1)N1CCCC1	> 100	> 100	> 100	> 100	> 100	> 100
O=C1/C(=C\c2ccc([N+](=O)[O-])cc2)Sc2scc(-c3ccc(O)c(O)c3)[n+]21	31.6	19.4	25.6	27.4	> 100	–
NS(=O)(=O)c1ccc(NC(=O)c2cc([N+](=O)[O-])cc([N+](=O)[O-])c2)cc1	–	86.8	47.2	> 100	> 100	> 100
CC[C@@H]1CN2CCC1C[C@@H]2C(O)c1ccnc2ccc(OCCN3CCN(CCOc4ccc5nccc(C(O)[C@@H]6C[C@@H]7CCN6C[C@@H]7CC)c5c4)CC3)cc12 (stereo partly specified)	31.2	30.3	27.1	26.2	–	34.2
C[C@H](CCC1=NCCN1)[C@H]1CC[C@H]2[C@@H]3[C@H](O)C[C@@H]4C[C@H](O)CC[C@]4(C)[C@H]3CC[C@]12C	32.3	21	32.7	28.6	30.2	31.6
Cc1ccc(/C=C2\CN(C)CC3C(c4ccc(C)cc4)=C(C#N)C(=O)NC23)cc1 (stereo unspecified)	> 50	> 50	> 50	> 50	> 50	> 50
N#Cc1ncn(-c2ccccc2)c1N	> 100	> 100	> 100	> 100	> 100	–
CCOC(=O)c1c(O)[nH]c(=O)c(CC)c1C	> 100	> 100	> 100	> 100	> 100	> 100
CC(=O)N1c2ccccc2C(C)(C)OC1C(Cl)(Cl)Cl (stereo unspecified)	> 100	> 100	83.1	> 100	> 100	–
CNNC1=NS(=O)(=O)c2cc(C)c(Cl)cc2S1	> 10	> 10	> 10	> 10	> 10	> 10
O=C(O)C(Cc1ccc2c(c1)CCC2)(Cc1ccc2c(c1)CCC2)C(=O)O	> 100	> 100	> 100	> 100	> 100	> 100
O=C(O)CCC(NC(=O)c1ccc(Nc2nc3ccccc3nc2C(=O)O)cc1)C(=O)O (stereo unspecified)	> 100	–	> 100	> 100	–	–
CCOC(=O)N1CCN(Cc2cc(=O)n3cc(C)ccc3n2)CC1	> 100	> 100	> 100	> 100	> 100	–
CN(C)CCN1C(=O)CC[C@@]2(C)C1=CC[C@@H]1[C@@H]2CC[C@@]2(C)[C@H]1CC[C@]2(C)O	> 100	> 100	> 100	> 100	> 100	> 100
CCOC(=O)C1(Cc2ccccc2)Cc2cc3c(cc2C1)CCC3	> 100	> 100	> 100	> 100	76.8	–
O=C(NCCN1C(=O)CN=C(c2ccc(Cl)cc2)c2cc(Cl)ccc21)OCc1ccccc1	66.6	28.3	31.9	34.9	35.5	23.8
CSC(SC)=C1C(=O)NN=C1C	> 100	> 100	> 100	> 100	> 100	> 100
Cc1cn(CC2=NCCN2)c(=O)[nH]c1=O	> 100	> 100	> 100	> 100	> 100	> 100

SMILES	TGI (EKVX NSCLC) [µM]	TGI (PC-3 prostate) [µM]	TGI (MDA-N) [µM]	TGI (M14 melanoma) [µM]	TGI (NCI-H226 lung) [µM]	TGI (RXF 393 renal) [µM]
O=C(c1ccc(Cl)cc1Cl)N(Cc1cccnc1)C(=S)N(Cc1cccnc1)C(=O)c1ccc(Cl)cc1Cl	30.2	7.55	6.76	9.26	38.3	33.2
Cc1cc(C)c(S(=O)(=O)N[C@@H](/C=C(\Br)CO)C(C)C)c(C)c1	> 100	48.9	69.8	91.3	–	63.3
O=c1[nH]c2cc(C(F)(F)F)ccc2nc1Cc1ccccc1	> 100	> 100	–	> 100	> 100	85.8
CCOc1cc(/C=N\N(C)C)cc(/C=N\N(C)C)c1O	> 100	> 100	> 100	> 100	> 100	–
COC(=O)C1Cc2c([nH]c3ccccc23)C(c2cccc(O)c2)N1 (stereo unspecified)	> 100	80.3	40.1	47.4	> 100	55.4
CSc1c(C(=O)Nc2ccc(C)cc2)c(N)nn1-c1ccccc1	> 100	> 100	> 100	> 100	> 100	75.3
N#C/C(=C1\N=C(c2ccccc2O)Oc2ccccc21)c1ccc([N+](=O)[O-])cc1	> 100	> 100	> 100	> 100	> 100	> 100
COCCOCN(C(=O)C1=CCC2(CC1)OCCO2)c1ccccc1I	> 50	> 50	> 50	> 50	> 50	–
Cc1nc(-c2ccccc2)c(C)n2c1nc1ccccc12	> 100	> 100	> 100	46	> 100	88.9
COc1cc([C@@H]2c3cc4c(cc3[C@H](OC3OC5COC(C(C)C)OC5C(O)C3O)C3COC(=O)[C@@H]32)OCO4)cc(OC)c1O (stereo partly specified)	47.5	14.4	6.48	24.3	24	17.2
CC(=O)OCC1OC(Nc2ccc3nc(C)n(-c4cccc(C)c4)c(=O)c3c2)C(OC(C)=O)C(OC(C)=O)C1OC(C)=O (stereo unspecified)	> 62.5	> 62.5	> 62.5	–	> 62.5	> 62.5
Cc1ccc(S(=O)(=O)N2CCCSCCSCCCSCC2)cc1	> 100	> 100	–	> 100	–	–
CN1CCN(c2nc3ccccc3nc2C(=O)c2ccc(Cl)cc2)CC1	> 100	> 100	> 100	62.8	–	77.3
Cc1ccc(/C=C2\N=C(N3CCCCC3)NC2=O)cc1	> 100	> 100	> 100	> 100	> 100	> 100
O=C1NCC2(CCNCC2)N1c1ccccc1	> 100	> 100	> 100	> 100	> 100	> 100
Clc1ccccc1/C=C/c1nsc(/C=C/c2ccccc2Cl)n1	> 100	> 100	> 100	> 100	> 100	> 100
O=C(O)c1cccc(S(=O)(=O)NN2C(=O)CSC2c2ccccc2)c1 (stereo unspecified)	> 100	> 100	> 100	> 100	> 100	> 100
CC(C)C1CC=NN1C(=O)OC(C)(C)C (stereo unspecified)	> 100	–	> 100	> 100	> 100	> 100
S=C(NNC1=NCCCN1)Nc1ccccc1	> 100	> 100	–	–	> 100	> 100
CC(O)c1c2c(cc3c1CC1(C3)Cc3cc4c(c(C(C)O)c3C1)CCC4)CCC2 (stereo unspecified)	96.2	34.9	–	35.2	34	30
CC(CC(=O)CO[C@H]1[C@H](O)[C@@H](O)[C@@H](O)[C@@H]2NC(=O)c3c(cc4c(c3O)OCO4)[C@H]21)OC1OC(CO)C(O)C(O)C1O (stereo partly specified)	3.46	1.48	3.91	2.17	3.54	1.8
CN(C)CCOc1ccc(I)cc1Cc1ccccc1	28.8	20.5	17.4	6	33.9	32.5

SMILES	TGI (EKVX NSCLC) [µM]	TGI (PC-3 prostate) [µM]	TGI (MDA-N) [µM]	TGI (M14 melanoma) [µM]	TGI (NCI-H226 lung) [µM]	TGI (RXF 393 renal) [µM]
O=[N+]([O-])c1ccc(Cl)cc1-n1nc(-c2ccccc2)cc1-c1ccccc1	> 100	> 100	> 100	> 100	> 100	–
CC(C)(C)c1cc(C(=O)/C=C/c2ccc(O)c(O)c2O)cc(C(C)(C)C)c1O	54	15.7	28.9	20.6	33.2	13.3
CC(=O)Oc1ccc(N2C(=O)C3c4[nH]c5ccccc5c4C4CCC(C(C)(C)C)CC4C3C2=O)cc1 (stereo unspecified)	9.41	10.4	14.1	13.2	26.1	5.64
COC(=O)[C@@H]1C=C[C@@H](C#N)n2c(=O)n(-c3ccccc3)c(=O)n21	> 100	–	–	> 100	40.4	–
COc1cc(N(CCC#N)CCC#N)ccc1/C(N=Nc1ccc(C)cc1)=N/NC(=O)c1cc(Br)ccc1O	66.7	66.5	> 100	> 100	> 100	65.6
CCOc1ccc2ccccc2c1NC1=NCCO1	> 100	–	–	> 100	85.4	> 100
CC(=O)Nc1ccc(Nc2cc(=O)n(C)c(=O)[nH]2)cc1	> 100	> 100	> 100	> 100	> 100	> 100
Oc1c(C2=NNC(c3cccs3)C2)ccc2ccccc12 (stereo unspecified)	–	> 100	35.3	32.5	> 100	> 100
CC(NC1=CC(=O)c2ncccc2C1=O)C(O)c1ccccc1 (stereo unspecified)	29.5	70.5	3	11	20.8	22.2
CC(C)Nc1[nH]c(C(=O)c2ccccc2)c(N)c1C(=S)Nc1ccccc1	> 100	> 100	> 100	48.5	> 100	–
Cc1c2c(c(C)n1-c1ccccc1)C(=O)N(CCSC(=N)N)C2=O	> 100	> 100	> 100	> 100	> 100	> 100
COc1ccc2c(c1)c1nn(CCN(C)C)c3ccc4c(=O)n(CCN(C)C)c(=O)n2c4c13	0.405	0.262	0.186	0.324	1.1	0.38
O=S(=O)(c1cc(Cl)ccc1Cl)N1CCN(c2ccc(Cl)c(Cl)c2)CC1	> 100	> 100	–	> 100	54.1	52.2
CSCCC(NCc1c(O)ccc2ccc(=O)oc12)C(=O)O (stereo unspecified)	> 100	> 100	> 100	> 100	> 100	> 100
Cc1cccc(/C=N/NC(=S)NCc2ccccn2)n1	> 100	> 100	> 100	42.6	> 100	–
Cc1ccc(S(=O)(=O)NC(=O)NC(CO)C(=O)O)cc1 (stereo unspecified)	–	> 100	> 100	> 100	–	> 100
CCOC(=O)c1cccc(NC(=O)CBr)c1	3.47	2.94	2.82	2.75	2.8	3.24
O/N=c1/ccn(O)c2ccccc12	11.2	8.88	17.5	6.87	7.14	1.64
COC(=O)C1Cc2ccc(C)cc2C1=O (stereo unspecified)	> 100	> 100	> 100	> 100	> 100	–
COc1ncnc2c1cnn2Cc1cn(COCC(O)CO)nn1 (stereo unspecified)	> 100	> 100	> 100	> 100	> 100	–

— PubChem BioAssay (NCI)
